This is an account of results in patent publication US12129312B2, “Peptide compound, application thereof and composition containing same” (priority 2017, dated 2024).

This assay concerns the target T1, human Chemokine like receptor 1 (Homo sapiens, UniProt Q99788).
T1 construct: host or cells: U2OS (Tango CMKLR1-bla U2OS)
T1 sequence (Q99788 1-373): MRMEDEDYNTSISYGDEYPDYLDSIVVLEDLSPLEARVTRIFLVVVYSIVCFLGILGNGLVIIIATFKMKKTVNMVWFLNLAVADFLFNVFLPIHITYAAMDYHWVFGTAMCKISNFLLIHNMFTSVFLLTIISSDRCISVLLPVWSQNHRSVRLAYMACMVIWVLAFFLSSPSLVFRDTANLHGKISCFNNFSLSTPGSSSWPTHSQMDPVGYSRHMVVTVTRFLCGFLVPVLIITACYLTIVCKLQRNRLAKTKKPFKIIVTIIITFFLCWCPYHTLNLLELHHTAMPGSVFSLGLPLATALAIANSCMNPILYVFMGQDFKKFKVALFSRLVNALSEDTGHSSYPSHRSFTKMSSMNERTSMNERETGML
As to the kind of experiment: Activation of Tango CMKLR1-bla U2OS cells (beta-lactamase FRET reporter). The assay is classed as cell-based. An outline of the steps: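 Agonist mode in Tango CMKLR1-bla U2OS cells, 10000 cells/well seeded overnight, then 10-point 3-fold compound dilutions from 10 mM DMSO stock applied for 4 h at 37 °C, 5% CO2. Beta-lactamase reporter read with CCF4-AM FRET substrate; peptide (D-Tyr)-Phe-Leu-Pro-(D-Ser)-Gln-Phe-(D-Ala)-Tic-Ser served as positive control.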

The mark [1] stands for this setting: determination by the method of Effect Embodiment 1, read-out: EC50.

Like-named read-outs stand apart in the source and are kept apart here. Square brackets hold non-standard residues; d marks the D form. Peptide text beside a SMILES is read from it. * marks the point of attachment. Benzoyl(4-CF3) = O=C(c1ccc(C(F)(F)F)cc1)*; dTyr(3-F) = N[C@H](Cc1ccc(O)c(F)c1)C(=O)O; Phe(4-Me) = Cc1ccc(C[C@H](N)C(=O)O)cc1; Pro(4,4-F2) = O=C(O)[C@@H]1CC(F)(F)CN1; 1Nal = N[C@@H](Cc1cccc2ccccc12)C(=O)O; 2Nal = N[C@@H](Cc1ccc2ccccc2c1)C(=O)O; Tic = O=C(O)[C@@H]1Cc2ccccc2CN1; NMeL = CN[C@@H](CC(C)C)C(=O)O; NMeS = CN[C@@H](CO)C(=O)O; Nle = CCCC[C@H](N)C(=O)O; Nva = CCC[C@H](N)C(=O)O

What is called EC50 is the concentration that produces a half-maximal response. On to `CC(C)C[C@@H](C(=O)N1CCC[C@H]1C(=O)N[C@H](CO)C(=O)N[C@@H](CCC(N)=O)C(=O)N[C@@H](Cc1ccccc1)C(=O)N[C@H](C)C(=O)N1Cc2ccccc2C[C@H]1C(=O)N[C@@H](CO)C(=O)O)N(C)C(=O)[C@H](Cc1ccccc1)NC(=O)[C@@H](Cc1ccc(O)cc1)NC(=O)c1ccc(C(F)(F)F)cc1` [YW-195, 4-(trifluoromethyl)benzoyl-(D-Tyr)-Phe-(NMe-Leu)-Pro-(D-Ser)-Gln-Phe-(D-Ala)-Tic-Ser] ({Benzoyl(4-CF3)}-[dY]F[NMeL]P[dS]QF[dA][Tic]S-OH), for which the EC50 under setting [1] is 0.8 nM.

Consider `CCC[C@H](NC(=O)[C@H](Cc1ccccc1)NC(=O)[C@H](N)Cc1ccc(O)cc1)C(=O)N1CCC[C@H]1C(=O)N[C@H](CO)C(=O)N[C@@H](CCC(N)=O)C(=O)N[C@@H](Cc1ccccc1)C(=O)N[C@H](C)C(=O)N1Cc2ccccc2C[C@H]1C(=O)N[C@@H](CO)C(=O)O` [YW-196, (D-Tyr)-Phe-Nva-Pro-(D-Ser)-Gln-Phe-(D-Ala)-Tic-Ser] (H-[dY]F[Nva]P[dS]QF[dA][Tic]S-OH), for which the EC50 was determined as 39 nM.

Turning to `CCCC[C@H](NC(=O)[C@H](Cc1ccccc1)NC(=O)[C@H](N)Cc1ccc(O)cc1)C(=O)N1CCC[C@H]1C(=O)N[C@H](CO)C(=O)N[C@@H](CCC(N)=O)C(=O)N[C@@H](Cc1ccccc1)C(=O)N[C@H](C)C(=O)N1Cc2ccccc2C[C@H]1C(=O)N[C@@H](CO)C(=O)O` [YW-197, (D-Tyr)-Phe-Nle-Pro-(D-Ser)-Gln-Phe-(D-Ala)-Tic-Ser] (H-[dY]F[Nle]P[dS]QF[dA][Tic]S-OH), a half-maximal effect (EC50) was put at 10 nM.

The molecule `CC(C)C[C@@H](C(=O)N1CCC[C@H]1C(=O)N[C@H](CO)C(=O)N[C@@H](CCC(N)=O)C(=O)N[C@@H](Cc1ccccc1)C(=O)N[C@H](C)C(=O)N1Cc2ccccc2C[C@H]1C(=O)N[C@@H](CO)C(=O)O)N(C)C(=O)[C@H](Cc1cccc2ccccc12)NC(=O)[C@H](N)Cc1ccc(O)cc1` [YW-199, (D-Tyr)-1Nal-(NMe-Leu)-Pro-(D-Ser)-Gln-Phe-(D-Ala)-Tic-Ser] (H-[dY][1Nal][NMeL]P[dS]QF[dA][Tic]S-OH) came in with an EC50 of 2.9 nM.

Take `CC(C)C[C@@H](C(=O)N1CCC[C@H]1C(=O)N[C@H](CO)C(=O)N[C@@H](CCC(N)=O)C(=O)N[C@@H](Cc1ccccc1)C(=O)N[C@H](C)C(=O)N1Cc2ccccc2C[C@H]1C(=O)N[C@@H](CO)C(=O)O)N(C)C(=O)[C@H](Cc1ccc2ccccc2c1)NC(=O)[C@H](N)Cc1ccc(O)cc1` [YW-200, (D-Tyr)-2Nal-(NMe-Leu)-Pro-(D-Ser)-Gln-Phe-(D-Ala)-Tic-Ser] (H-[dY][2Nal][NMeL]P[dS]QF[dA][Tic]S-OH): a half-maximal response (EC50) required 19 nM.

Turning to `CC(C)C[C@@H](C(=O)N1CCC[C@H]1C(=O)N[C@@H](C(=O)N[C@@H](CCC(N)=O)C(=O)N[C@@H](Cc1ccccc1)C(=O)N[C@H](C)C(=O)N1Cc2ccccc2C[C@H]1C(=O)N[C@@H](CO)C(=O)O)[C@H](C)O)N(C)C(=O)[C@H](Cc1ccccc1)NC(=O)[C@H](N)Cc1ccc(O)cc1` [YW-204, (D-Tyr)-Phe-(NMe-Leu)-Pro-(D-Thr)-Gln-Phe-(D-Ala)-Tic-Ser] (H-[dY]F[NMeL]P[dT]QF[dA][Tic]S-OH; N-terminus assumed), the concentration for a half-maximal effect (EC50) under setting [1] turned out to be 62 nM.

With `Cc1ccc(C[C@H](NC(=O)[C@@H](C)NC(=O)[C@H](Cc2ccccc2)NC(=O)[C@H](CCC(N)=O)NC(=O)[C@@H](CO)NC(=O)[C@@H]2CCCN2C(=O)[C@H](CC(C)C)N(C)C(=O)[C@H](Cc2ccccc2)NC(=O)[C@H](N)Cc2ccc(O)cc2)C(=O)N[C@@H](CO)C(=O)O)cc1` [YW-205, (D-Tyr)-Phe-(NMe-Leu)-Pro-(D-Ser)-Gln-Phe-(D-Ala)-Phe(4-Me)-Ser] (H-[dY]F[NMeL]P[dS]QF[dA][Phe(4-Me)]S-OH), under setting [1], the EC50 turned out to be 6.2 nM.

The molecule `CC(C)C[C@@H](C(=O)N1CC(F)(F)C[C@H]1C(=O)N[C@H](CO)C(=O)N[C@@H](CCC(N)=O)C(=O)N[C@@H](Cc1ccc2ccccc2c1)C(=O)N[C@H](C)C(=O)N1Cc2ccccc2C[C@H]1C(=O)N(C)[C@@H](CO)C(=O)O)N(C)C(=O)[C@H](Cc1ccccc1)NC(=O)[C@H](N)Cc1ccc(O)cc1` [YW-224, (D-Tyr)-Phe-(NMe-Leu)-Pro(diF)-(D-Ser)-Gln-2Nal-(D-Ala)-Tic-NMeSer] (H-[dY]F[NMeL][Pro(4,4-F2)][dS]Q[2Nal][dA][Tic][NMeS]-OH) displayed a 50% effective concentration (EC50) of 1.3 nM.

Take `CC(C)C[C@@H](C(=O)N1CC(F)(F)C[C@H]1C(=O)N[C@H](CO)C(=O)N[C@@H](CCC(N)=O)C(=O)N[C@@H](Cc1ccc2ccccc2c1)C(=O)N[C@H](C)C(=O)N1Cc2ccccc2C[C@H]1C(=O)N(C)[C@@H](CO)C(=O)O)N(C)C(=O)[C@H](Cc1ccccc1)NC(=O)[C@H](N)Cc1ccc(O)c(F)c1` [YW-226, (D-Tyr(3F))-Phe-(NMe-Leu)-(DiFluorPro)-(D-Ser)-Gln-(Nal-2)-(D-Ala)-Tic-(NMe-Ser)] (H-[dTyr(3-F)]F[NMeL][Pro(4,4-F2)][dS]Q[2Nal][dA][Tic][NMeS]-OH): the EC50 under setting [1] came out at 3.3 nM.
